How the values were obtained:
[1] = Nanoindentation test of the newly regenerated layer (modulus, hardness); set-up: species or system Human; conditions: for mechanical properties of the newly formed layer compared with healthy dentin: peptide only treatment; for surface hardness of dentin lesions: peptide only, 5 days
Method: Human third molars were sectioned transversally into 2 mm thick slices at the mid-coronal region of the tooth. A window of sound dentin measuring 2×2 mm each was delineated by applying two coats of acid-resistant nail varnish on the tooth surfaces. To mimic carious lesions, the samples were immersed in a demineralizing solution (pH 4.6, 30 ml) at 37° C. for 3 days. Twenty μl of peptide only (LRAP, P32, P26) and peptide-chitosan hydrogel (200 μg/ml) were applied separately on the demineralized windows (2 applications: Days 1 & 5) and the tooth slices were immersed in artificial saliva (pH 7, 5 ml) at 37° C. for 5 and 10 days. The artificial saliva includes 1.2 mM Ca^2+, 0.2 mM Mg^2+ 0.7 mM H2PO4^−, 16 mM KCl, 4.5 mM NH4Cl and 50 mM Hepes in water. The artificial saliva solution (5 ml) was changed daily from days 1-10.
FIGS. 18A, 18B, 18C, and 18D provide nanoindentation test results showing changes in the modulus (A,B) and hardness (C, D) of the newly regenerated layer after being treated with peptide only and peptide-chitosan hydrogel for 5 and 10 days. Treatment with LRAP and P32 restored surface hardness of dentin lesions in 5 days.

[2] = TEM of peptide self-assembly; format: physicochemical; conditions: pH 7.4, HEPES buffer, 25° C.
Source text: (Ref: doi:10.1016/j.jsb.2011.07.016).

MPLPPHPGHPGYINFSYEVLTPLKWYQSIRPPPLPPMLPDLTLEAWPSTDKTKREEVD (listed as Homo sapiens) [LRAP, leucine rich amelogenin polypeptide, alternatively spliced isoform of amelogenin]
mechanical properties of the newly formed layer compared with healthy dentin [1]: superior mechanical properties than healthy dentin
surface hardness of dentin lesions [1]: restored

MPLPSYEVLTPLKWPVHPMQPSTDKTKREEVD (Amelogenin-derived polypeptide) [Peptide P32, Artificial amelogenin-derived polypeptide]
mechanical properties of the newly formed layer compared with healthy dentin [1]: superior mechanical properties than healthy dentin
surface hardness of dentin lesions [1]: restored
TEM assembly morphology [2]: uniformly-dispersed spherical assemblies
